From BigSolDB 2.1

NC(=O)c1cccnc1Cl
solubility (mole fraction)
Settings | in 1,4-dioxane | in 2-ethoxyethanol | in 2-methoxyethanol | in DMAc | in DMF | in ethanol | in ethylene glycol | in methanol | in methyl acetate | in water
278.15 K | – | 0.0124 | 0.0205 | 0.132 | 0.0981 | 0.00303 | 0.00783 | 0.00747 | 0.00215 | 0.00081
283.15 K | – | 0.0154 | 0.0246 | 0.141 | 0.107 | 0.00366 | 0.00946 | 0.00893 | 0.00263 | 0.00102
288.15 K | 0.00632 | 0.0182 | 0.0293 | 0.152 | 0.115 | 0.00443 | 0.0114 | 0.0104 | 0.00331 | 0.00127
293.15 K | 0.0077 | 0.0224 | 0.0352 | 0.163 | 0.126 | 0.00539 | 0.0136 | 0.0122 | 0.0041 | 0.00157
298.15 K | 0.00958 | 0.0267 | 0.0413 | 0.175 | 0.137 | 0.00698 | 0.0167 | 0.0148 | 0.00506 | 0.00193
303.15 K | 0.0118 | 0.0311 | 0.0478 | 0.187 | 0.149 | 0.00821 | 0.0201 | 0.0171 | 0.00587 | 0.00237
308.15 K | 0.0136 | 0.0375 | 0.0542 | 0.199 | 0.161 | 0.0101 | 0.024 | 0.0204 | 0.00699 | 0.00291
313.15 K | 0.0168 | 0.0437 | 0.0642 | 0.213 | 0.175 | 0.0124 | 0.0283 | 0.0238 | 0.00885 | 0.00351
318.15 K | 0.02 | 0.0524 | 0.0747 | 0.227 | 0.188 | 0.0147 | 0.034 | 0.0278 | 0.0105 | 0.00437
323.15 K | 0.0244 | 0.0615 | 0.0856 | 0.24 | 0.202 | 0.0178 | 0.0403 | 0.0324 | 0.0127 | 0.00546
